# In publication PMC7899551, “Phase 1 study of Z-endoxifen in patients with advanced gynecologic, desmoid, and hormone receptor-positive solid tumors” (Oncotarget, 2021):
# Assays:
# [1] = Urinary excretion of Z-endoxifen over a 24-hour collection; type: in vivo, human
# Protocol: A 3-mL blood sample was collected in a K2 EDTA tube on day 1 of cycle 1 before drug administration and at the following times post-first dose: 0.5, 1, 2, 3, 4, 6, 8, and 24 hours. Samples were collected at the same time points on day 28 of cycle 1 for DL1-6 until a protocol amendment eliminated the requirement for these samples at the higher dose levels. Samples were wrapped in aluminum foil after collection to protect from light exposure. A 10-mL aliquot of urine was collected before agent administration on cycle 1 day 1, for 24 hours after dosing on day 1, and before drug administration on cycle 2 day 1; samples were refrigerated prior to analysis.
# Plasma and urine concentrations of Z- and E-endoxifen were measured using a validated, post-column fluorescence derivatization HPLC assay. Non-compartmental pharmacokinetic parameters were calculated using WinNonlin version 7.0 (Pharsight Corp., Mountainview, CA, USA). A 2 μM Cmax target was established for day 28 plasma concentration. The amount of Z-endoxifen excreted in urine was measured over a 24-hour collection period.
# [2] = Safety: adverse events (CTCAE v4.0), DLT, MTD; type: in vivo
# Protocol: This was an open-label trial of Z-endoxifen in patients with advanced solid tumors (https://clinicaltrials.gov/ identifier: NCT01273168). Z-endoxifen-HCl was supplied by the Pharmaceutical Management Branch, National Cancer Institute, as 20 and 40 mg capsules; agent was administered orally once daily on a continuous schedule in 28-day cycles with a starting dose of 20 mg/day taken either 1 hour before or 2 hours after meals. Dose escalation followed a traditional 3+3 design in which patients were dose-escalated to the next dose level (DL) in cohorts of 3 patients until dose-limiting toxicity (DLT) was observed. […] Eight dose levels (DL1-8) were examined: 20, 40, 60, 100, 140, 200, 280, and 360 mg, respectively. Two patients at DL8 received the free base form of Z-endoxifen on day 1 rather than the hydrochloride salt to assess the pharmacokinetics of that formulation.
# Toxicities were graded using Common Terminology Criteria for Adverse Events (CTCAE) version 4.0. Toxicities were required to resolve to grade 2 or below prior to initiation of the next cycle. Occurrence of a DLT was to result in a dose reduction following resolution to grade ≤ 2. No more than 2 dose reductions were allowed per patient on study. The MTD was defined as the highest dose level at which no more than 1 in 6 patients experienced a DLT.
# [3] = test system: ER+ metastatic breast cancer; set-up: method as in PMID 28854070; conditions: cited from earlier work
# ERα = biological target: T1, ERα (Homo sapiens, UniProt P03372); assay: 18F-FES PET/CT imaging (blocking estrogen receptor binding); type: in vivo; conditions: after 1–5 days of oral treatment
# T1 construct: from tissue; host or cells: patients' tumors in vivo, e.g. a pre-sacral soft tissue lesion of serous ovarian cancer
# T1 sequence (P03372 1-595): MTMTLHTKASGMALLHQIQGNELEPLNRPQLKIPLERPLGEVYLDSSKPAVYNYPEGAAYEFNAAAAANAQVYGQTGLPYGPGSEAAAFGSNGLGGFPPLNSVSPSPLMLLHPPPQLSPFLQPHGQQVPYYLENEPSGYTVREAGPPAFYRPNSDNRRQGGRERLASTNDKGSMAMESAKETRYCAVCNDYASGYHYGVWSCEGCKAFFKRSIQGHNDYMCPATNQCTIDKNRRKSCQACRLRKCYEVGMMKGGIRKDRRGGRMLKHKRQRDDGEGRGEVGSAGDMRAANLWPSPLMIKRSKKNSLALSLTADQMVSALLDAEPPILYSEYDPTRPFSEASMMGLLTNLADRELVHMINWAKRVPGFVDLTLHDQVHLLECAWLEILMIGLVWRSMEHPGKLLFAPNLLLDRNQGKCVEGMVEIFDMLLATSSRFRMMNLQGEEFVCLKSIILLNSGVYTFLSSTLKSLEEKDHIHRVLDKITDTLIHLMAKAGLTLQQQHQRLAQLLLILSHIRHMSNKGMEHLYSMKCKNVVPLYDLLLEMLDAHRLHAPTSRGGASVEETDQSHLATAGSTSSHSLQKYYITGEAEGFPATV
# Protocol: The pharmacodynamic effect of Z-endoxifen, blocking estrogen receptor binding, was assessed by ^18F-FES PET/CT imaging. […] Twenty patients in this trial agreed to be screened by ^18F-FES PET/CT imaging to assess ER status. Ten patients who were positive prior to treatment were re-imaged from 1 to 5 days after treatment initiation. We present here images taken after 3 days of treatment from a patient with serous ovarian cancer whose imaging has not previously been reported (patient 40, DL8, Figure 2). […] This patient developed a bowel obstruction during cycle 1 attributed to their disease and chose to come off study. Other images from patients in this trial have been previously reported.
# The uptake of ^18F-FES was measured using PET/CT imaging in patients enrolled in the present trial before and after 1–5 days of treatment with oral Z-endoxifen HCl as previously described. Five additional patients were scanned following the publication of the imaging approach. The images presented here are from one of these 5 patients.
structure (smiles),measurement,setting,value
CC/C(=C(\c1ccc(O)cc1)c1ccc(OCCNC)cc1)c1ccccc1 [Z-endoxifen],amount excreted in the urine,[1],< 0.26 % of dose
same,"Anemia, grade 2","[2]; DL2 40 mg, n = 6",1 patients
same,"Elevated ALT, grade 2","[2]; DL2 40 mg, n = 6",1 patients
same,"Fatigue, grade 2","[2]; DL2 40 mg, n = 6",1 patients
same,"Lymphopenia, grade 2","[2]; DL2 40 mg, n = 6",3 patients
same,"Mucositis (oral), grade 2","[2]; DL2 40 mg, n = 6",1 patients
same,"Thromboembolic event, grade 2","[2]; DL2 40 mg, n = 6",1 patients
same,"Thromboembolic event, grade 4","[2]; DL2 40 mg, n = 6",1 patients
same,"Vestibular disorder, grade 2","[2]; DL2 40 mg, n = 6",1 patients
same,DLT,"[2]; DL2 (40 mg/day), patient 4",grade 4 pulmonary embolism
same,"Anemia, grade 2","[2]; DL3 60 mg, n = 3",1 patients
same,"Leukopenia, grade 2","[2]; DL3 60 mg, n = 3",1 patients
same,"Neutropenia, grade 2","[2]; DL3 60 mg, n = 3",1 patients
same,"Anemia, grade 2","[2]; DL4 100 mg, n = 3",1 patients
same,"Lymphopenia, grade 2","[2]; DL4 100 mg, n = 3",1 patients
same,"Fatigue, grade 2","[2]; DL5 140 mg, n = 3",1 patients
same,"Leukopenia, grade 2","[2]; DL5 140 mg, n = 3",1 patients
same,"Neutropenia, grade 2","[2]; DL5 140 mg, n = 3",1 patients
same,"Reflux, grade 2","[2]; DL5 140 mg, n = 3",1 patients
same,"Fatigue, grade 2","[2]; DL6 200 mg, n = 3",1 patients
same,"Hypertension, grade 2","[2]; DL6 200 mg, n = 3",1 patients
same,"Abdominal pain, grade 3","[2]; DL7 280 mg, n = 7",1 patients
same,"Anemia, grade 2","[2]; DL7 280 mg, n = 7",2 patients
same,"Diarrhea, grade 3","[2]; DL7 280 mg, n = 7",1 patients
same,"Elevated ALT, grade 2","[2]; DL7 280 mg, n = 7",1 patients
same,"Elevated ALT, grade 3","[2]; DL7 280 mg, n = 7",1 patients
same,"Elevated AST, grade 2","[2]; DL7 280 mg, n = 7",1 patients
same,"Fatigue, grade 2","[2]; DL7 280 mg, n = 7",1 patients
same,"Hypophosphatemia, grade 2","[2]; DL7 280 mg, n = 7",1 patients
same,"Hypophosphatemia, grade 4","[2]; DL7 280 mg, n = 7",1 patients
same,"Lymphopenia, grade 2","[2]; DL7 280 mg, n = 7",1 patients
same,DLT,"[2]; DL7 (280 mg/day), patient 22",grade 3 ALT elevation
same,"Anemia, grade 2","[2]; DL8 360 mg, n = 12",4 patients
same,"Anemia, grade 3","[2]; DL8 360 mg, n = 12",1 patients
same,"Colonic perforation, grade 4","[2]; DL8 360 mg, n = 12",1 patients
same,"Constipation, grade 2","[2]; DL8 360 mg, n = 12",1 patients
same,"Dehydration, grade 3","[2]; DL8 360 mg, n = 12",1 patients
same,"Dyspepsia, grade 2","[2]; DL8 360 mg, n = 12",1 patients
same,"Elevated ALT, grade 2","[2]; DL8 360 mg, n = 12",2 patients
same,"Elevated ALT, grade 3","[2]; DL8 360 mg, n = 12",1 patients
same,"Elevated AST, grade 2","[2]; DL8 360 mg, n = 12",1 patients
same,"Fatigue, grade 2","[2]; DL8 360 mg, n = 12",1 patients
same,"Hyponatremia, grade 3","[2]; DL8 360 mg, n = 12",1 patients
same,"Hypophosphatemia, grade 2","[2]; DL8 360 mg, n = 12",2 patients
same,"Hypophosphatemia, grade 3","[2]; DL8 360 mg, n = 12",2 patients
same,"Leukopenia, grade 2","[2]; DL8 360 mg, n = 12",1 patients
same,"Lymphopenia, grade 2","[2]; DL8 360 mg, n = 12",5 patients
same,"Lymphopenia, grade 3","[2]; DL8 360 mg, n = 12",1 patients
same,"Nausea, grade 2","[2]; DL8 360 mg, n = 12",1 patients
same,"Rash, grade 2","[2]; DL8 360 mg, n = 12",1 patients
same,"Stroke, grade 2","[2]; DL8 360 mg, n = 12",1 patients
same,"Thromboembolic event, grade 2","[2]; DL8 360 mg, n = 12",1 patients
same,"adverse event at end of cycle 1, disease most likely cause","[2]; DL8 (360 mg), patient with fallopian tube carcinoma",grade 4 colonic perforation
same,grade 4 adverse events potentially related to the study agent,[2]; all dose levels,Three grade 4 adverse events
same,"anemia, grade ≥ 2 (grades 2 and 3), study-related",[2]; of 40 patients enrolled,10 patients
same,"lymphopenia, grade ≥ 2 (grades 2 and 3), study-related",[2]; of 40 patients enrolled,11 patients
same,tolerability,"[2]; oral daily, 20-360 mg/day",generally well tolerated
same,maximum tolerated dose,"[2]; oral daily, up to 360 mg/day",No maximum tolerated dose was established
same,Plasma concentration on day 1,"[3]; 160 mg dose, 38 patients with ER+ metastatic breast cancer",333 ng/mL
same,overall CBR,"[3]; previous trial, highest dose 160 mg/day",26.3%
same,18F-FES tracer uptake on PET/CT,ERα,FES tracer uptake could be reduced
